Literature values as cited in patent publication US10213490B2, “Compositions for providing agents that degrade in water” (VIRUN, INC., priority 2015, dated 2019).

N[C@@H](CCC(=O)N[C@@H](CS)C(=O)NCC(=O)O)C(=O)O [glutathione]
glutathione remaining (stored in water at pH 2 and 7, after 7 days): approximately 65% | glutathione degraded (stored in water, pH 3 to 6, 7 days): 20%
